Molecular target: T1, Isocitrate lyase (Icl) (Paracoccus denitrificans, UniProt A1B1S0)
T1 construct: gene Pden_1363; Recombinant His6-tagged Icl (Pden_1363)
T1 sequence (A1B1S0 1-535): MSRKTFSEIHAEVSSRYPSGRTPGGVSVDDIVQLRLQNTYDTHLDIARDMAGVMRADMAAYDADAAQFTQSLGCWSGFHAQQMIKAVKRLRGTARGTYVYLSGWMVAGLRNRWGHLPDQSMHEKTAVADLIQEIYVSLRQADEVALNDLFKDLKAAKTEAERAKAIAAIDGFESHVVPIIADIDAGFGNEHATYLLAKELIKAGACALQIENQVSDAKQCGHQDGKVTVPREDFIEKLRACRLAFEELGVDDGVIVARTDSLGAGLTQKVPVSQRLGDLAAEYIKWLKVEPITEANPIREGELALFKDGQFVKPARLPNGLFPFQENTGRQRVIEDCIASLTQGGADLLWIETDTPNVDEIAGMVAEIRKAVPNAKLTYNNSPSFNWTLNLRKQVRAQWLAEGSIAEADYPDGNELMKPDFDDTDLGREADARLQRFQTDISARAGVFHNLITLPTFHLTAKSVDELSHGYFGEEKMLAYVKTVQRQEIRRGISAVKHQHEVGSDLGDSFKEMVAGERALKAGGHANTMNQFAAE
Assay: spectrophotometric phenylhydrazine-glyoxylate assay with purified enzyme, […] min preincubation with 3-NPA at […]°C
Assay type: biochemical

O=C(O)CC[N+](=O)[O-] [3-NPA, 3-nitropropionate]
IC50: 34 µM
